{"source": "ChEMBL document CHEMBL5463723", "about": "“Data for DCP probe BIBO3304” (2023)", "key": {"[1]": {"molecular_target": "Alpha-1A adrenergic receptor (Homo sapiens) (UniProt P35348)", "sequence (P35348 whole entry)": "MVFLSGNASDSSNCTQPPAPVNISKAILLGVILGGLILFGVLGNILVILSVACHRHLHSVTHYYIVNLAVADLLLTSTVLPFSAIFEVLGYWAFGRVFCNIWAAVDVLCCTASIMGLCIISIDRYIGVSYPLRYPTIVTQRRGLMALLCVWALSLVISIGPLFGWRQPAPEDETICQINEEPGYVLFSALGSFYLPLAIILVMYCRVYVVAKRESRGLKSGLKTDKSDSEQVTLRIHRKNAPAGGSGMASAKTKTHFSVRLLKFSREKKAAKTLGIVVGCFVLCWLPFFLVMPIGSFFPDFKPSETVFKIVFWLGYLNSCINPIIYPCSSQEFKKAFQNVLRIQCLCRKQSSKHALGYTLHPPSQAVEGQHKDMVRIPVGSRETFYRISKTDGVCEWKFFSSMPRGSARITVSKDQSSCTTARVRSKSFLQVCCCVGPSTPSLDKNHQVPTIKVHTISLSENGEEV", "test": "Agonist activity in the Eurofins Cerep SafetyScreen44 (BI) against ALPHA1AH_ANTAG by Scintillation counting (Cerep_2338)", "settings": "Compound concentration 10.0 uM; call rule not given here"}, "[2]": {"molecular_target": "Cannabinoid receptor 2 (Homo sapiens) (UniProt P34972)", "test": "Activity against CB2/PERIPH/H in the Eurofins Cerep SafetyScreen44 (BI) by Radioactive Assay (Cerep_37)", "settings": "Compound concentration 10.0 uM"}, "[3]": {"molecular_target": "hERG (KCNH2) (Homo sapiens, UniProt Q12809)", "sequence (Q12809 whole entry)": "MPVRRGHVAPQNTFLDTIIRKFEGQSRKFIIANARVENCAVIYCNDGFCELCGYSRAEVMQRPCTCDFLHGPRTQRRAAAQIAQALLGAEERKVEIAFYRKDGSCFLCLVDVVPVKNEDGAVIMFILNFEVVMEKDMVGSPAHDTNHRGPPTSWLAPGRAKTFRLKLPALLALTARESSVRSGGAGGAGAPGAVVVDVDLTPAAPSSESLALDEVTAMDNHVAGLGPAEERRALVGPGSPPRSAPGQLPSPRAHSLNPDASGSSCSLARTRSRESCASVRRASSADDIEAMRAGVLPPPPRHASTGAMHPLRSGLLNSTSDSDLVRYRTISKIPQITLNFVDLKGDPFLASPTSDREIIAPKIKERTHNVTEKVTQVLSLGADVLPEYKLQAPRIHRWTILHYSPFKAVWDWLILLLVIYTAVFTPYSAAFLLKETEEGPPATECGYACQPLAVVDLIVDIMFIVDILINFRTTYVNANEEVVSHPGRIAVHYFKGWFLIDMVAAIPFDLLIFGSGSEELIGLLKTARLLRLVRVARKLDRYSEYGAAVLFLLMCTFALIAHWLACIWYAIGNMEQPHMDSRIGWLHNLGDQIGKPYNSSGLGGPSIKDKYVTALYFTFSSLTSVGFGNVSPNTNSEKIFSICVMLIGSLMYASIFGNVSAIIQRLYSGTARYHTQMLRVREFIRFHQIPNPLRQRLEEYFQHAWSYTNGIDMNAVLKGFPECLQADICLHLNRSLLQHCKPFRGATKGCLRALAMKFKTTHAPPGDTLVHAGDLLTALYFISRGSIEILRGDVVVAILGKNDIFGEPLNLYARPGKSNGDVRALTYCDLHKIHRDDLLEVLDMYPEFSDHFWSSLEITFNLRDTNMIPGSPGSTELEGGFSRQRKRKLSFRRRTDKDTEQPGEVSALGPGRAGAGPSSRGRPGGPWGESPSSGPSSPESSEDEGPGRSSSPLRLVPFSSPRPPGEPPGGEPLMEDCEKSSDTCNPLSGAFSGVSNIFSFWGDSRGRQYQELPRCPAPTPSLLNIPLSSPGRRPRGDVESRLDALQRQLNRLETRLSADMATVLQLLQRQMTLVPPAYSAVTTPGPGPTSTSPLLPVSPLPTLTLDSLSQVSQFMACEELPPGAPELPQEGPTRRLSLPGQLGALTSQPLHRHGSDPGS", "test": "Inhibitor of HERG_DOFETILIDE in the Eurofins Cerep SafetyScreen44 (BI) by Scintillation counting (Cerep_4094)", "set-up": "scale not given: the % may be the effect or the level left", "settings": "probe [3H] dofetilide, compound concentration 10 uM, read-out: % Ctrl"}, "[4]": {"molecular_target": "Tyrosine-protein kinase Lck (Homo sapiens) (UniProt P06239)", "test": "Inhibitor of LCK_CE in the Eurofins Cerep SafetyScreen44 (BI) by lanthanide chelation excitation (Cerep_2906)", "settings": "Compound concentration 10.0 uM"}, "[5]": {"molecular_target": "Muscarinic acetylcholine receptor M3 (Homo sapiens) (UniProt P20309)", "test": "M3 Eurofins-Cerep binding assay", "set-up": "ligand concentration 0.2 nM", "settings": "Compound concentration 10.0 uM"}, "[6]": {"molecular_target": "MAO-A (Homo sapiens, UniProt P21397)", "test": "Agonist activity in the Eurofins Cerep SafetyScreen44 (BI) against MAO-A_ANTAG by Scintillation counting (Cerep_443)", "set-up": "scale not given: the % may be the effect or the level left", "settings": "rat; compound concentration 10 uM; target entry is the homologue from another species; read-out: % Ctrl"}, "[7]": {"molecular_target": "T1, Neuropeptide Y receptor type 2 (Homo sapiens, UniProt P49146)", "T1 sequence (P49146 whole entry)": "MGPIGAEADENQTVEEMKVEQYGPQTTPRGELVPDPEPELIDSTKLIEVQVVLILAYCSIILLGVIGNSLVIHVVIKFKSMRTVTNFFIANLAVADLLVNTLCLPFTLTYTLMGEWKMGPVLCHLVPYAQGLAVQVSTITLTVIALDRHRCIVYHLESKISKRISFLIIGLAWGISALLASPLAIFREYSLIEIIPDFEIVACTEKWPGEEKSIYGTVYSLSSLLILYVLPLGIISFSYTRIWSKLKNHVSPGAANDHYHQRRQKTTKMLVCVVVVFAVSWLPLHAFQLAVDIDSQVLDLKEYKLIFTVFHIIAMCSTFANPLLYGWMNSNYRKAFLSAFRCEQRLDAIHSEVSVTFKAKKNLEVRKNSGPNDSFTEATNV", "test": "Radioligand binding assay (NPY2R, SMS-KAN cells)", "format": "cell-based"}, "[8]": {"molecular_target": "Neuropeptide Y receptor type 5 (Homo sapiens, UniProt Q15761)", "test": "Radioligand binding assay (human NPY5R, HEK293)", "format": "cell-based"}, "[9]": {"molecular_target": "Adenosine receptor A2a (Rattus norvegicus) (UniProt P30543)", "test": "Activity against A2A/R in the Eurofins Panlabs screen (BI) by Radioactive Assay", "settings": "Compound concentration 10.0 uM"}, "[10]": {"molecular_target": "Alpha-1A adrenergic receptor (Homo sapiens) (UniProt P35348)", "test": "Activity against ALPHA1A/R in the Eurofins Panlabs screen (BI) by Others", "settings": "Rattus norvegicus; Compound concentration 10.0 uM"}, "[11]": {"molecular_target": "Alpha-1B adrenergic receptor (Homo sapiens) (UniProt P35368)", "test": "Activity against ALPHA1B/R in the Eurofins Panlabs screen (BI) by Radioactive Assay", "settings": "Rattus norvegicus; Compound concentration 10.0 uM"}, "[12]": {"molecular_target": "Alpha-2B adrenergic receptor (Rattus norvegicus) (UniProt P19328)", "sequence (P19328 whole entry)": "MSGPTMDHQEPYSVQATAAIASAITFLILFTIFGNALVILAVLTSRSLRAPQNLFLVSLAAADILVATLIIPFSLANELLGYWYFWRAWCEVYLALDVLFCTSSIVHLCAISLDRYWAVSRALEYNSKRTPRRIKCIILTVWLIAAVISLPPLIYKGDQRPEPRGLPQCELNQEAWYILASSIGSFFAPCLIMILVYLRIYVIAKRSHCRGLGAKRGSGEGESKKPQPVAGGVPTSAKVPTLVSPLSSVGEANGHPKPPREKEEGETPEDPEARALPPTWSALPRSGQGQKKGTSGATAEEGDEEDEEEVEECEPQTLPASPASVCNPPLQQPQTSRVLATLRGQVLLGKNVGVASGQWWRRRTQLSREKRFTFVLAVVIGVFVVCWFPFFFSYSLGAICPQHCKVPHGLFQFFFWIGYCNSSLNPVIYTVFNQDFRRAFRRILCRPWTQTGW", "test": "Activity against ALPHA2B/R in the Eurofins Panlabs screen (BI)", "settings": "Compound concentration 10.0 uM"}, "[13]": {"molecular_target": "Glutamate receptor 1 (Rattus norvegicus) (UniProt P19490)", "sequence (P19490 whole entry)": "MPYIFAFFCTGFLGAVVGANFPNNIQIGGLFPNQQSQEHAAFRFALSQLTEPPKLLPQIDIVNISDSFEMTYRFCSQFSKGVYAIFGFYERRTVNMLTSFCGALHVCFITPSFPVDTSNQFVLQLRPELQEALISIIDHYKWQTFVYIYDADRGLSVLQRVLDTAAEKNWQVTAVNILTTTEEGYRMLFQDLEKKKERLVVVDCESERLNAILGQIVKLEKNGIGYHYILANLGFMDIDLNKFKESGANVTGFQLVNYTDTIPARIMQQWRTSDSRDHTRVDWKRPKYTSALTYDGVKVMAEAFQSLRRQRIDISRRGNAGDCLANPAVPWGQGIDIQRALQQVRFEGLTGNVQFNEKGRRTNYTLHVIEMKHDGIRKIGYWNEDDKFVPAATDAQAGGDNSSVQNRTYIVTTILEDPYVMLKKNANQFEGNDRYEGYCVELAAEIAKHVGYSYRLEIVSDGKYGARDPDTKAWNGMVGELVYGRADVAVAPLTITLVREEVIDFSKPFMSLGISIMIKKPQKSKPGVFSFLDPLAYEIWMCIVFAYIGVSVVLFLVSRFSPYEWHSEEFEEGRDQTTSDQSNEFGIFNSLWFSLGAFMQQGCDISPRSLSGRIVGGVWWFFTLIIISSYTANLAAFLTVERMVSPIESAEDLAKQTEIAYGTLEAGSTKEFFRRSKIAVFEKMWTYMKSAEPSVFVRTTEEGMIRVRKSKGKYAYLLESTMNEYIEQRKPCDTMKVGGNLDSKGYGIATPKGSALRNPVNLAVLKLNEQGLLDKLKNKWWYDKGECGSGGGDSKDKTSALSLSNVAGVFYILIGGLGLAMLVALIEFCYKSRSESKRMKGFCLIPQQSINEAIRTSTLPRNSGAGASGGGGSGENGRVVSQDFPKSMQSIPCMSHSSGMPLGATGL", "test": "Activity against AMPA/RA in the Eurofins Panlabs screen (BI)", "settings": "Compound concentration 10.0 uM"}, "[14]": {"molecular_target": "Type-1 angiotensin II receptor (Oryctolagus cuniculus) (UniProt P34976)", "test": "Activity against ATII/RB in the Eurofins Panlabs screen (BI) by Radioactive Assay", "settings": "Compound concentration 10.0 uM"}, "[15]": {"molecular_target": "B2 bradykinin receptor (Cavia porcellus) (UniProt O70526)", "sequence (O70526 whole entry)": "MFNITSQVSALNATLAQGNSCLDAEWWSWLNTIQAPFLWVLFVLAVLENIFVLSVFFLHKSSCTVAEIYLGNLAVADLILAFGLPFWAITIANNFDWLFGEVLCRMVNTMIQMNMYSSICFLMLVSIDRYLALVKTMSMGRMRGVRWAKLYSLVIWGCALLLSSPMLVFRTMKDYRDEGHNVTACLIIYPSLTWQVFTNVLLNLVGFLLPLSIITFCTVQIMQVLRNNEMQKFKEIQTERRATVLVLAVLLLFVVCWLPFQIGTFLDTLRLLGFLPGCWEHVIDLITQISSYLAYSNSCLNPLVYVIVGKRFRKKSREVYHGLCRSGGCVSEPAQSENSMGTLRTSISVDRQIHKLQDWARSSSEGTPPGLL", "test": "Activity against B2/GP in the Eurofins Panlabs screen (BI) by Radioactive Assay", "settings": "Compound concentration 10.0 uM"}, "[16]": {"species_on_record": "Rattus norvegicus", "test": "Inhibitor of CALCINEUPP2B in the Eurofins Panlabs screen (BI) by Radioactive Assay", "settings": "Compound concentration 10.0 uM"}, "[17]": {"molecular_target": "D(1A) dopamine receptor (Homo sapiens) (UniProt P21728)", "test": "Activity against D1/HU in the Eurofins Panlabs screen (BI) by Radioactive Assay", "settings": "Compound concentration 10.0 uM"}, "[18]": {"molecular_target": "D(3) dopamine receptor (Homo sapiens) (UniProt P35462)", "test": "Activity against D3/HU in the Eurofins Panlabs screen (BI) by Scintillation counting", "settings": "Compound concentration 10.0 uM"}, "[19]": {"molecular_target": "G_PROTEIN_RECEP_F1_2 domain-containing protein (Cavia porcellus) (UniProt A0A286XTF2)", "test": "Activity against DELTA/GP in the Eurofins Panlabs screen (BI) by Radioactive Assay", "settings": "Compound concentration 10.0 uM"}, "[20]": {"molecular_target": "Endothelin receptor type B (Rattus norvegicus) (UniProt P21451)", "test": "Activity against ETB/R in the Eurofins Panlabs screen (BI) by Radioactive Assay", "settings": "Compound concentration 10.0 uM"}, "[21]": {"molecular_target": "Galanin receptor type 1 (Rattus norvegicus) (UniProt Q62805)", "test": "Activity against GALANIN/R in the Eurofins Panlabs screen (BI) by Radioactive Assay", "settings": "Compound concentration 10.0 uM"}, "[22]": {"molecular_target": "Glycine receptor (Rattus norvegicus) (UniProt P22771+P24524+P07727+P20781)", "test": "Activity against GLYCINSTRS in the Eurofins Panlabs screen (BI) by Radioactive Assay", "format": "protein-complex assay", "settings": "Compound concentration 10.0 uM"}, "[23]": {"molecular_target": "Histamine H1 receptor (Cavia porcellus) (UniProt P31389)", "test": "Activity against H1/CENT/GP in the Eurofins Panlabs screen (BI) by Radioactive Assay", "settings": "Compound concentration 10.0 uM"}, "[24]": {"molecular_target": "Interleukin-1 receptor type 1 (Mus musculus) (UniProt P13504)", "sequence (P13504 whole entry)": "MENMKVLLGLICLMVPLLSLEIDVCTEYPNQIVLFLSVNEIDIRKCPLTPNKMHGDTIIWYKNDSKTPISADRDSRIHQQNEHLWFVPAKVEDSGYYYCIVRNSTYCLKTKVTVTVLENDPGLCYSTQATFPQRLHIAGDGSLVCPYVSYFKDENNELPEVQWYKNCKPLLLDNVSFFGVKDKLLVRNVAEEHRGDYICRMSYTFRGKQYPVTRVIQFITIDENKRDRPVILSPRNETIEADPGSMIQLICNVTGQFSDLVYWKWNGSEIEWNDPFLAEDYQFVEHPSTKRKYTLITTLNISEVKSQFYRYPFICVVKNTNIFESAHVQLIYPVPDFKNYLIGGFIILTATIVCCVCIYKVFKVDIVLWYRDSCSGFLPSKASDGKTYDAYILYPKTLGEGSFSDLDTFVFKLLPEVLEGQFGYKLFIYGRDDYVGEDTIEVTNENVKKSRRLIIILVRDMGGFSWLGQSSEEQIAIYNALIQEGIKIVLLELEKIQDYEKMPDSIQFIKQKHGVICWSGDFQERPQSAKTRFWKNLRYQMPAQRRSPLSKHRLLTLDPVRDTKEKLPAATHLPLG", "test": "Activity against IL-1ALPHA/M in the Eurofins Panlabs screen (BI) by Radioactive Assay", "settings": "Compound concentration 10.0 uM"}, "[25]": {"molecular_target": "C-X-C chemokine receptor type 2 (Homo sapiens) (UniProt P25025)", "test": "Activity against IL-8/H in the Eurofins Panlabs screen (BI) by Radioactive Assay", "settings": "Compound concentration 10.0 uM"}, "[26]": {"molecular_target": "Leukotriene A-4 hydrolase (Cavia porcellus) (UniProt P19602)", "sequence (P19602 whole entry)": "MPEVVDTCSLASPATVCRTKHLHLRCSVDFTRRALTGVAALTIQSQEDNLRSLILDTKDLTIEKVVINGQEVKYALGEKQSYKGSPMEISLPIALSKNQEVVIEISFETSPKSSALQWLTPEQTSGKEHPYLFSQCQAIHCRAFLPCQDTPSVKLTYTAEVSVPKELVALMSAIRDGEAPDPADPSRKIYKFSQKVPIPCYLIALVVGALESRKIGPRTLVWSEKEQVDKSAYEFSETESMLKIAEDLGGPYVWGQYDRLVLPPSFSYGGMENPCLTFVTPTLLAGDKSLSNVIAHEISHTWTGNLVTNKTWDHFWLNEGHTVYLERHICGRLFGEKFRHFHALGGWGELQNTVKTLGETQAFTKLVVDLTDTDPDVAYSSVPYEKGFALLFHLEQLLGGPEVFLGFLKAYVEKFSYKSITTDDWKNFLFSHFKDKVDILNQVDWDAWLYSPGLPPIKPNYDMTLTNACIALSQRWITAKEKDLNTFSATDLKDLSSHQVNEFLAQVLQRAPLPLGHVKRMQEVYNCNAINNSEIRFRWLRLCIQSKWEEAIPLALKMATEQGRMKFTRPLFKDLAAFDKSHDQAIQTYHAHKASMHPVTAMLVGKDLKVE", "test": "Inhibitor of LTA4HYD in the Eurofins Panlabs screen (BI) by Radioactive Assay", "settings": "Compound concentration 100.0 uM"}, "[27]": {"molecular_target": "Muscarinic acetylcholine receptor M3 (Rattus norvegicus) (UniProt P08483)", "test": "Activity against M3/R in the Eurofins Panlabs screen (BI) by Radioactive Assay", "settings": "Compound concentration 10.0 uM"}, "[28]": {"molecular_target": "Substance-P receptor (Cavia porcellus) (UniProt P30547)", "sequence (P30547 whole entry)": "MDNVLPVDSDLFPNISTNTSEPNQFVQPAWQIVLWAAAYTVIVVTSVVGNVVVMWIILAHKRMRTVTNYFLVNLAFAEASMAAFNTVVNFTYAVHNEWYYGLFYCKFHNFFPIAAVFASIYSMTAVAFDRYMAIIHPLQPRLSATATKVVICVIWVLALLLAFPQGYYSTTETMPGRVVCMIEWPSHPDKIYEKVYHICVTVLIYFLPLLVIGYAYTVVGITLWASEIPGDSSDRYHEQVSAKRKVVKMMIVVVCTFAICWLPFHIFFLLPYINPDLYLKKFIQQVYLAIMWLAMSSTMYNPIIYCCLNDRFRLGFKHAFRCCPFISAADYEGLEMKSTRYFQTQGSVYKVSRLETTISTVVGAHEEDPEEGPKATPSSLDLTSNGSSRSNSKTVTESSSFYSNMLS", "test": "Activity against NK1/GP in the Eurofins Panlabs screen (BI) by Radioactive Assay", "settings": "Compound concentration 10.0 uM"}, "[29]": {"molecular_target": "Glutamate NMDA receptor (Rattus norvegicus) (UniProt P35439+Q00959+Q00960+Q00961+Q62645+Q8VHN2+Q9R1M7)", "test": "Agonist activity in the Eurofins Panlabs screen (BI) against NMDAAGSI/R by Radioactive Assay", "format": "protein-complex assay", "settings": "Compound concentration 10.0 uM"}, "[30]": {"molecular_target": "Glutamate receptor ionotropic, NMDA 1 (Rattus norvegicus) (UniProt P35439)", "test": "Activity against NMDAGLSI/R in the Eurofins Panlabs screen (BI) by Radioactive Assay", "settings": "Compound concentration 10.0 uM"}, "[31]": {"molecular_target": "Protein kinase C beta type (Homo sapiens) (UniProt P05771)", "test": "Inhibitor of PKCBETA in the Eurofins Panlabs screen (BI) by Radioactive Assay", "settings": "Compound concentration 10.0 uM"}, "[32]": {"species_on_record": "Cavia porcellus", "test": "Activity against SIGMA/NS/GP in the Eurofins Panlabs screen (BI) by Radioactive Assay", "settings": "Compound concentration 10.0 uM"}, "[33]": {"molecular_target": "Androgen receptor (Rattus norvegicus) (UniProt P15207)", "test": "Activity against TESTOST/R in the Eurofins Panlabs screen (BI) by Radioactive Assay", "settings": "Compound concentration 10.0 uM"}}}
{"smiles": "N=C(N)NCCC[C@@H](NC(=O)C(c1ccccc1)c1ccccc1)C(=O)NCc1ccc(CNC(N)=O)cc1", "values": [{"measurement": "residual activity", "setting": "[1]", "result": 102, "unit": "%"}, {"measurement": "residual activity", "setting": "[2]", "result": 91, "unit": "%"}, {"measurement": "activity at 10 µM", "setting": "[3]", "result": "79% (not active)"}, {"measurement": "residual activity", "setting": "[4]", "result": 86, "unit": "%"}, {"measurement": "residual activity", "setting": "[5]", "result": 87, "unit": "%"}, {"measurement": "activity at 10 µM", "setting": "[6]", "result": "97% (not active)"}, {"measurement": "IC50", "setting": "[7]", "result": "> 10 µM (not active)"}, {"measurement": "IC50", "setting": "[8]", "result": "> 10 µM (not active)"}, {"measurement": "residual activity", "setting": "[9]", "result": 97, "unit": "%"}, {"measurement": "residual activity", "setting": "[10]", "result": 98, "unit": "%"}, {"measurement": "residual activity", "setting": "[11]", "result": 114, "unit": "%"}, {"measurement": "residual activity", "setting": "[12]", "result": 91, "unit": "%"}, {"measurement": "residual activity", "setting": "[13]", "result": 96, "unit": "%"}, {"measurement": "residual activity", "setting": "[14]", "result": 99, "unit": "%"}, {"measurement": "residual activity", "setting": "[15]", "result": 115, "unit": "%"}, {"measurement": "residual activity", "setting": "[16]", "result": 90, "unit": "%"}, {"measurement": "residual activity", "setting": "[17]", "result": 95, "unit": "%"}, {"measurement": "residual activity", "setting": "[18]", "result": 98, "unit": "%"}, {"measurement": "residual activity", "setting": "[19]", "result": 80, "unit": "%"}, {"measurement": "residual activity", "setting": "[20]", "result": 98, "unit": "%"}, {"measurement": "residual activity", "setting": "[21]", "result": 91, "unit": "%"}, {"measurement": "residual activity", "setting": "[22]", "result": 81, "unit": "%"}, {"measurement": "residual activity", "setting": "[23]", "result": 102, "unit": "%"}, {"measurement": "residual activity", "setting": "[24]", "result": 88, "unit": "%"}, {"measurement": "residual activity", "setting": "[25]", "result": 100, "unit": "%"}, {"measurement": "residual activity", "setting": "[26]", "result": 102, "unit": "%"}, {"measurement": "residual activity", "setting": "[27]", "result": 85, "unit": "%"}, {"measurement": "residual activity", "setting": "[28]", "result": 106, "unit": "%"}, {"measurement": "residual activity", "setting": "[29]", "result": 89, "unit": "%"}, {"measurement": "residual activity", "setting": "[30]", "result": 87, "unit": "%"}, {"measurement": "residual activity", "setting": "[31]", "result": 89, "unit": "%"}, {"measurement": "residual activity", "setting": "[32]", "result": 100, "unit": "%"}, {"measurement": "residual activity", "setting": "[33]", "result": 88, "unit": "%"}]}
